Source: US6743795B1, “3-nitropyridine derivaives and the pharmaceutical compositions containing said derivatives” (Dong Wha Pharm. Ind. Co. Ltd., priority 1999, dated 2004)
Where two headings read alike, the source gives them in different places.

Legend:
[1] = biological target: T1, HIV reverse transcriptase (Human immunodeficiency virus type 1 group M subtype B, UniProt P03366); test: In vitro HIV reverse transcriptase activity (non-radioactive RT assay kit); assay type: biochemical
T1 construct: purchased Boehringer Mannheim
Protocol: <Experiment 3> Inhibitory Effect on the In Vitro HIV Enzyme Activities in Reverse Transcription
The following in vitro experiments were done to determine the effect of compounds of formula 1 on the reduction of HIV enzyme activities in reverse transcription.
Non-radioactive reverse transcriptase assay kit (Boehringer Mannheim) was used in the measurement of in vitro transcriptase activities. 20 μl (40 ng) of HIV transcriptase and 20 μl of reaction mixture containing matrix-primer hybrid poly(A)oligo(dT)15, DIG(digoxigenin)-dUTP, biotin-dUTP, and TTP were added to wells coated with streptavidin. Test compounds were also added at the final concentrations of 0.1 and 1 μg/ml and allowed to react at 37° C. for 1 hr. At this time, DNA is formed from RNA by the action of HIV reverse transcriptase, forming bonds with streptavidin coated on the bottom of wells because of digoxigenin and biotin moieties attached to nucleotides.
When the reaction was completed, each well was washed with 250 μl of cleaning buffer (pH7.0) for 30sec. five times to remove remaining impurities. 200 μl of anti-DIG-POD […] was added to each well, allowed to react at 37° C. for 1 hr and washed as above to remove impurities. 200 μl of ABTS™, a substrate for peroxidase, was added to each well and allowed to react at room temperature for 30 min. Absorbance at 405 nm was then read for each solution using ELISA reader and used for quantitative determination of inhibitory effect on the HIV transcriptase activities. The percentage of reduction in the activities of HIV reverse transcriptase was calculated using the group without test compound as control and the results are represented in Table 5.

HepG2 cells = test: Cytotoxicity test on HepG2 cells (MTT); assay type: cell-based
From the text: (§1) <Experiment 4> Cytotoxicity Test

HBV polymerase = biological target: T2, HBV polymerase (Hepatitis B virus genotype A2 subtype adw2, UniProt P03159); test: In vitro reverse transcription activity of HBV polymerase (ELISA-type, DIG/biotin nucleotides); assay type: biochemical; details: for inhibition at 0.01 µg/mL / inhibition at 0.1 µg/mL / inhibition at 1 µg/mL: read-out: Inhibition activity on HBV-RT (%)
T2 construct: made in house; host or cells: E. coli
T2 sequence (P03159 whole entry): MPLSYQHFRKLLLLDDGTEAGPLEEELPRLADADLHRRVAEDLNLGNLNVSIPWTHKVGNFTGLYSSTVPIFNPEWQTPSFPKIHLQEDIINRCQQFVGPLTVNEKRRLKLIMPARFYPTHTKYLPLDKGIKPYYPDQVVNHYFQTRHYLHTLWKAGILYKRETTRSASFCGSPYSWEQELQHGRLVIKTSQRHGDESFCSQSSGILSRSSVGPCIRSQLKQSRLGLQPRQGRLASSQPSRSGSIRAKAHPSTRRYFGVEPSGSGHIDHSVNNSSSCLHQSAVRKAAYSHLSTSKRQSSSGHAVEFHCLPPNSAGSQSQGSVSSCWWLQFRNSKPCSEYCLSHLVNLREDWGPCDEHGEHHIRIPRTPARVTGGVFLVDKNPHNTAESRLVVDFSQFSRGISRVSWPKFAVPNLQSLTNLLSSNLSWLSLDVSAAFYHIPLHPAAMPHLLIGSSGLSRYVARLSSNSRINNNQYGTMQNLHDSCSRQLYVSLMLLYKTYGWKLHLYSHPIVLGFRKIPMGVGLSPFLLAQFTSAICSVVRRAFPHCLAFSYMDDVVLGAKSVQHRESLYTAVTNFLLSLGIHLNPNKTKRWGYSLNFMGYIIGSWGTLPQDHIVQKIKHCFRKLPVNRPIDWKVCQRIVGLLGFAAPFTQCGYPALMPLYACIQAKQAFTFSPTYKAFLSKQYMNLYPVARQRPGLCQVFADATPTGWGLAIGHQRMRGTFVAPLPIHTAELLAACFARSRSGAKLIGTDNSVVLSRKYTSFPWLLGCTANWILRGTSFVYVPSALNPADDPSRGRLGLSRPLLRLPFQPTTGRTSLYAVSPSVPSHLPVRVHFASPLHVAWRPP
Protocol: <Experiment 1> Inhibitory Effect on the In Vitro Activities of HBV Polymerase in Reverse Transcription
The following in vitro experiment was performed to determine the effect of the compounds of formula 1 on the activity of HBV polymerase during reverse transcription.
The present inventors submitted application for a patent concerning HBV polymerase genetically expressed in and separated from E.coli, the process of its preparation, and the method to measure the enzyme activities (KR 94-3918, KR 96-33998). In the present experiments HBV polymerase was used which had been expressed in E. coli as stated above.
The method used in the present invention to measure in vitro reverse transcribing activities of HBV polymerase is as follows. Basic principles are the same as for ELISA. Nucleotides with biotin or digoxigenin group attached are included as substrates and anti-DIG antibodies attached to peroxidase enzyme recognize the polymerized substrates.
To the wells coated with streptavidin, 20 μl of HBV polymerase, 20 μl of reaction mixture (10 μM each of DIG-UTP and Biotin-UTP, 46 mM Tris-HCl, 266 mM KCl, 27.5 mM MgCl2, 9.2 mM DTT substrate/primer nybrid), and 20 μl of test compound (added to 1, 0.1, and 0.01 μg/ml) were added and allowed to react at 22° C. for 15 hrs. During this reaction, HBV polymerase catalyzes DNA synthesis and digoxigenin and biotin attached to nucleotides form bonds with streptavidin coated on the bottom of wells. When the reaction was done, each well was washed with 250 μl of cleaning buffer (pH 7.0) for 30 seconds, which was repeated five times to remove remaining impurities. 200 μl of anti-DIG-POD antibody was added to each well and allowed to react for 1 hr at 37° C., and the wells were washed with cleaning buffer to remove impurities. 200 μl each of ABTS™, a substrate of peroxidase, was then added and allowed to react at room temperature for 30 min. Absorbance was measured at 405 nm using ELISA reader.
The percentage of reduction in HBV polymerase activities for reverse transcription was calculated using the group without test compound as a control and the results are shown in Table 3.

HBV = test: Proliferation of HBV in HBV producing cell line HepG 2.2.15 (competitive PCR of culture supernatant); assay type: cell-based, Hepatitis B virus; details: HepG 2.2.15, one week; for inhibition at 0.1 µg/mL / inhibition at 1 µg/mL / inhibition at 0.01 µg/mL: Hepatitis B virus, HepG2.2.15, 168 h, read-out: Inhibitory effect on the HBV proliferation: Inhibition activity on HBV-RT (%)
Protocol: <Experiment 2> Inhibitory Effect on the Proliferation of HBV in HBV Producing Cell Line
The following experiment was performed to determine inhibitory effects of compounds of formula 1 on the proliferation of HBV producing cell line.
To test for antiviral effect, replication and proliferation of HBV were measured in HepG 2.2.15, a human liver cancer cell line.
The cell concentration was adjusted to 1×10^5 cells/ml and 1 ml was added to each well of a 24-well cell culture plate, which was then kept in a culture box for 3-4 days at 37° C. under 5% CO2 until cells grew sufficiently, changing culture medium everyday. When the cells matured sufficiently, the test compounds were added to the final concentrations of 0.01, 0.1, and 1 μg/ml. One week after the addition of test compounds, the culture solution was centrifuged at 5,000 rpm for 10 min. 25 μl of supernatant was transferred to a new tube and 5 μl of lysis solution [0.54N NaOH, 0.06% NP40] was added to each tube. After keeping the tube at 37° C. for 1 hr, 30 μl of neutralizing solution [0.09N HCl 0.1MTris-HCl, pH7.4] was added as a reaction solution for competitive polymerase chain reaction (PCR).
PCR was performed using genetic sequence of HBV core protein as a matrix. PCR reaction was carried out by adding 1 unit of Taq polymerase enzyme to 25 pmol of each primer, 250 μM dNTP, 5 μl of PCR reaction solution [0.54N NaOH, 0. 06% NP40, 0.09N HCl, 0.1M Tris-HCl, pH 7.4].
DNA polymerized by PCR was electrophoresed on Agarose gel and quantitatively analyzed using an image analyzer (Gel Doc 1000, Bio-Rad) in order to evaluate the effect of compounds of the present invention on the reduction of HBV proliferation.
3TC (lamivudine) was used as a positive control at the same concentrations as those of the test compounds. The percentage of reduction in HBV proliferation was calculated using the group without test compound as a control and the results are represented in Table 4.

[2] = Cytotoxicity test on HepG2 cells (MTT); assay type: cell-based; details: human; HepG2 cells, MTT; read-out: Cytotoxicity on HepG2, IC50 (50% Inhibitory Concentration)
From the text: as §1

Compound	Inhibitory effect on the activities of HIV reverse transcriptase: Inhibition activity on HIV-RT (%) ([1]; 0.1 μg/ml test compound)	Inhibitory effect on the activities of HIV reverse transcriptase: Inhibition activity on HIV-RT (%) ([1]; 1 μg/ml test compound)	Cytotoxicity on HepG2, IC50 (50% Inhibitory Concentration) (HepG2 cells) [µg/mL]	Cytotoxicity on HepG2, MCD (Minimal Cytotoxic Concentration) (HepG2 cells) [µg/mL]	Inhibition activity on HBV-RT (%) (HBV polymerase; 0.01 μg/ml test compound)	Inhibition activity on HBV-RT (%) (HBV polymerase; 0.1 μg/ml test compound)	Inhibition activity on HBV-RT (%) (HBV polymerase; 1 μg/ml test compound)	Inhibitory effect on the HBV proliferation: Inhibition activity on HBV-RT (%) (HBV; 0.01 μg/ml)	Inhibitory effect on the HBV proliferation: Inhibition activity on HBV-RT (%) (HBV; 0.1 μg/ml)	Inhibitory effect on the HBV proliferation: Inhibition activity on HBV-RT (%) (HBV; 1 μg/ml)	Cytotoxicity on HepG2, MCD (Minimal Cytotoxic Concentration) (HepG2 cells; HepG2 cells, MTT) [µg/mL]	IC50 [2] [µg/mL]	inhibition at 0.01 µg/mL (HBV polymerase; 0.01 μg/ml test compound) [%]	inhibition at 0.1 µg/mL (HBV polymerase; 0.1 μg/ml test compound) [%]	inhibition at 1 µg/mL (HBV polymerase; 1 μg/ml test compound) [%]	inhibition at 0.1 µg/mL (HBV; 0.1 μg/ml) [%]	inhibition at 1 µg/mL (HBV; 1 μg/ml) [%]	Cytotoxicity on HepG2, IC50 (50% Inhibitory Concentration) (HepG2 cells; HepG2 cells, MTT) [µg/mL]	melting point [°C]	inhibition at 0.01 µg/mL (HBV; 0.01 μg/ml) [%]
6-ethyl-(2-hydroxyethyl)amino-2-(1H-5-indazolylamino)-3-nitropyridine [Example 11]	46	67	>100	100	35	60	85	20	45	83	–	–	–	–	–	–	–	–	–	–
COc1ccc([N+](=O)[O-])c(Nc2ccc3cn[nH]c3c2)n1 [Example 2, 2-(1H-6-indazolylamino)-6-methoxy-3-nitropyridine]	–	–	–	–	–	–	–	–	–	–	100	> 100	12	50	76	40	72	–	–	–
CC(C)Nc1ccc([N+](=O)[O-])c(Nc2ccc3cn[nH]c3c2)n1 [Example 6, 2-(1H-6-indazolylamino)-6-isopropyl amino-3-nitropyridine]	50	69	–	–	49	76	91	33	72	90	100	–	–	–	–	–	–	>100	–	–
C[C@@H](CCO)Nc1ccc([N+](=O)[O-])c(Nc2ccc3[nH]ncc3c2)n1 [Example 12, 6-[(1S)-1-(hydroxyethyl)ethylamino]-2-(1H-5-indazolylamino)-3-nitropyridine]	40	64	–	–	–	–	–	–	–	–	–	–	38	56	90	48	85	–	> 270	29
O=[N+]([O-])c1ccc(NC(CO)CO)nc1Nc1ccc2[nH]ncc2c1 [Example 14, 6-[bis(hydroxymethyl)methylamino)-2-(1H-5-indazolylamino)-3-nitropyridine]	44	59	–	–	–	–	–	–	–	–	–	–	30	49	85	41	80	–	> 270	22
